System: normotensive rats
Assay: Effect on a normal electrocardiogram in rats
Format: in vivo
Parameters: Rate: unit not given here
Details: rat; for PR / QRS: in ms (unit assumed)
Procedure: To verify the influence of the tested compound on the normal electrocardiogram (ECG), the experiment was performed. Aspel ASCARD apparatus (standard II lead, with tape speed 50 mm/s and voltage calibration 1 mV = 1 cm) was used for ECG measurements. Normotensive rats were anesthetized with thiopental (75 mg/kg ip). The ECG was recorded prior and 5, 10, 15, 20, 30, 40, 50, 60, and 80 min after intraperitoneal administration of the tested compound. The influence on PQ, QTc interval, QRS complex, and heart rate was evaluated. Bazzett’s formula, QTc = QT/√RR, was used to calculate QTc.

CCC(CN1CCN(c2ccccc2OC)CC1)NCCCOc1c(C)cccc1C.Cl.Cl (centres unmarked) [HBK-10, N-(3-(2,6-dimethylphenoxy)propyl)-1-(4-(2-methoxyphenyl)piperazin-1-yl)butan-2-amine dihydrochloride]
dose influencing normal ECG relative to median effective dose in adrenaline-induced arrhythmia model: 160 fold | effect on PR (10 mg/kg): no effect | effect on QRS (10 mg/kg): no effect | effect on QTc (10 mg/kg): no effect | effect on heart rate (10 mg/kg): no effect | QTc (10 mg/kg ip, 0 min): 215.3 ± 19.3 | Rate (10 mg/kg ip, 0 min): 357.1 ± 22.6 | PR (10 mg/kg ip, 0 min): 53.9 ± 2.8 | QRS (10 mg/kg ip, 0 min): 22.6 ± 1.8 | QTc (10 mg/kg ip, 5 min): 213.2 ± 20.8 | Rate (10 mg/kg ip, 5 min): 347.3 ± 25.2 | PR (10 mg/kg ip, 5 min): 53.0 ± 3.3 | QRS (10 mg/kg ip, 5 min): 21.5 ± 1.4 | QTc (10 mg/kg ip, 10 min): 214.4 ± 20.0 | Rate (10 mg/kg ip, 10 min): 347.9 ± 29.2 | PR (10 mg/kg ip, 10 min): 55.8 ± 2.0 | QRS (10 mg/kg ip, 10 min): 23.2 ± 3.6 | QTc (10 mg/kg ip, 15 min): 212.4 ± 12.3 | Rate (10 mg/kg ip, 15 min): 345.0 ± 32.7 | PR (10 mg/kg ip, 15 min): 54.9 ± 2.4 | QRS (10 mg/kg ip, 15 min): 23.5 ± 2.6 | QTc (10 mg/kg ip, 20 min): 216.7 ± 13.8 | Rate (10 mg/kg ip, 20 min): 343.4 ± 33.6 | PR (10 mg/kg ip, 20 min): 53.1 ± 4.4 | QRS (10 mg/kg ip, 20 min): 23.6 ± 2.9 | QTc (10 mg/kg ip, 30 min): 213.7 ± 19.0 | Rate (10 mg/kg ip, 30 min): 338.5 ± 26.3 | PR (10 mg/kg ip, 30 min): 52.2 ± 4.4 | QRS (10 mg/kg ip, 30 min): 22.9 ± 1.6 | QTc (10 mg/kg ip, 40 min): 221.4 ± 16.9 | Rate (10 mg/kg ip, 40 min): 337.5 ± 25.0 | PR (10 mg/kg ip, 40 min): 55.6 ± 2.6 | QRS (10 mg/kg ip, 40 min): 24.5 ± 1.8 | QTc (10 mg/kg ip, 50 min): 218.8 ± 11.8 | Rate (10 mg/kg ip, 50 min): 342.2 ± 25.8 | PR (10 mg/kg ip, 50 min): 53.6 ± 4.4 | QRS (10 mg/kg ip, 50 min): 23.9 ± 2.5 | QTc (10 mg/kg ip, 60 min): 217.4 ± 22.0 | Rate (10 mg/kg ip, 60 min): 344.5 ± 28.9 | PR (10 mg/kg ip, 60 min): 54.7 ± 3.1 | QRS (10 mg/kg ip, 60 min): 23.2 ± 1.9 | QTc (10 mg/kg ip, 80 min): 218.3 ± 25.5 | Rate (10 mg/kg ip, 80 min): 350.7 ± 28.1 | PR (10 mg/kg ip, 80 min): 54.9 ± 4.2 | QRS (10 mg/kg ip, 80 min): 22.0 ± 1.4 | effect on PR (20 mg/kg): did not affect | effect on QRS (20 mg/kg): did not affect | QTc (20 mg/kg ip, 0 min): 198.4 ± 6.1 | Rate (20 mg/kg ip, 0 min): 317.4 ± 26.0 | PR (20 mg/kg ip, 0 min): 53.1 ± 2.8 | QRS (20 mg/kg ip, 0 min): 21.8 ± 1.7 | QTc (20 mg/kg ip, 5 min): 190.9 ± 8.4 | Rate (20 mg/kg ip, 5 min): 304.2 ± 32.0 | PR (20 mg/kg ip, 5 min): 52.4 ± 3.4 | QRS (20 mg/kg ip, 5 min): 20.9 ± 1.2 | QTc (20 mg/kg ip, 10 min): 187.8 ± 14.7 | Rate (20 mg/kg ip, 10 min): 278.4 ± 41.8 | PR (20 mg/kg ip, 10 min): 55.3 ± 1.7 | QRS (20 mg/kg ip, 10 min): 22.7 ± 3.4 | QTc (20 mg/kg ip, 15 min): 179.4 ± 16.4 | Rate (20 mg/kg ip, 15 min): 256.2 ± 52.1 | PR (20 mg/kg ip, 15 min): 54.2 ± 2.1 | QRS (20 mg/kg ip, 15 min): 22.8 ± 2.2 | QTc (20 mg/kg ip, 20 min): 178.9 ± 21.9 | Rate (20 mg/kg ip, 20 min): 249.9 ± 53.5 | PR (20 mg/kg ip, 20 min): 52.1 ± 4.2 | QRS (20 mg/kg ip, 20 min): 22.7 ± 2.5 | QTc (20 mg/kg ip, 30 min): 178 ± 21.6 ms | Rate (20 mg/kg ip, 30 min): 246.5 ± 55.6 | PR (20 mg/kg ip, 30 min): 51.3 ± 4.4 | QRS (20 mg/kg ip, 30 min): 22.0 ± 1.5 | QTc (20 mg/kg ip, 40 min): 175.7 ± 20.5 | Rate (20 mg/kg ip, 40 min): 242.1 ± 53.5 | PR (20 mg/kg ip, 40 min): 54.6 ± 2.4 | QRS (20 mg/kg ip, 40 min): 23.6 ± 1.5 | QTc (20 mg/kg ip, 50 min): 179.3 ± 20.7 | Rate (20 mg/kg ip, 50 min): 239.2 ± 55.4 | PR (20 mg/kg ip, 50 min): 52.5 ± 4.6 | QRS (20 mg/kg ip, 50 min): 22.9 ± 2.3 | Rate (20 mg/kg ip, 60 min): 239.5 ± 56.6 | PR (20 mg/kg ip, 60 min): 53.7 ± 3.0 | QRS (20 mg/kg ip, 60 min): 22.1 ± 1.7 | QTc (20 mg/kg ip, 80 min): 173.0 ± 6.6 | Rate (20 mg/kg ip, 80 min): 241.0 ± 64.1 | PR (20 mg/kg ip, 80 min): 53.8 ± 4.1 | QRS (20 mg/kg ip, 80 min): 21.0 ± 1.3 | decrease of heart rate (20 mg/kg, 10 min after administration): 12.3% | decrease of heart rate (20 mg/kg, 15 min after administration): 19.3% | decrease of QTc (20 mg/kg, 15 min post injection): 9.6% | decrease of heart rate (20 mg/kg, 20 min after administration): 21.3% | decrease of QTc (20 mg/kg, 20 min post injection): 9.8% | decrease of heart rate (20 mg/kg, 30 min after administration): 22.3% | decrease of QTc (20 mg/kg, 30 min post injection): 10.5% | decrease of heart rate (20 mg/kg, 40 min after administration): 23.7% | decrease of QTc (20 mg/kg, 40 min post injection): 11.4% | decrease of heart rate (20 mg/kg, 50 min after administration): 24.6% | decrease of QTc (20 mg/kg, 50 min post injection): 9.6% | decrease of heart rate (20 mg/kg, 60 min after administration): 24.5% | decrease of QTc (20 mg/kg, 60 min post injection): 8.3% | decrease of heart rate (20 mg/kg, 80 min after administration): 24.1% | decrease of QTc (20 mg/kg, 80 min post injection): 12.8%
